The values that follow are results of earlier work, collected in patent US20100003319A1, “RALOXIFENE IMMEDIATE RELEASE TABLETS” (GLENMARK GENERICS LTD., priority 2008, published 2010).

As for `O=C(c1ccc(OCCN2CCCCC2)cc1)c1c(-c2ccc(O)cc2)sc2cc(O)ccc12` [raloxifene, [6-hydroxy-2-(4-hydroxyphenyl)-benzothiophen-3-yl]-[4-[2-(1-piperidyl)ethoxy]phenyl]-methanone], the Solubility in water result is recorded as “very slightly soluble”.
